Measured values taken from ChEMBL document CHEMBL4334537 (ACS Med Chem Lett, 2020).

Legend:
[1] = Chemical stability of fluorescent labelled compound in PBS buffer at pH 7.4 and 22 degree C measured after 48 hrs by RP-HPLC analysis; type: physicochemical; conditions: pH 7.4, 48 h
[2] = Chemical stability of fluorescent labelled compound in PBS buffer assessed as compound decomposition at pH 7.4 and 22 degree C after > 24 hrs by RP-HPLC analysis; type: physicochemical; conditions: pH 7.4, 24 h

| SMILES | Stability [1] | Stability [2] |
| --- | --- | --- |
| CC[C@H](C)[C@H](NC(=O)[C@H](Cc1ccc(O)cc1)NC(=O)[C@@H]1CCCN1C(=O)[C@H](CCCNC(=N)NC(=O)NCCOCCOCCNC(=O)CCCCCN1/C(=C/C=C/C=C/C2=[N+](CCCCS(=O)(=O)[O-])c3ccccc3C2(C)C)C(C)(C)c2cc(S(=O)(=O)O)ccc21)NC(=O)[C@@H](N)CCCNC(=N)N)C(=O)N[C@@H](CC(C)C)C(=O)O.O=C(O)C(F)(F)F.O=C(O)C(F)(F)F | Stable |  |
| CC[C@H](C)[C@H](NC(=O)[C@H](Cc1ccc(O)cc1)NC(=O)[C@@H]1CCCN1C(=O)[C@H](CCCNC(=N)N)NC(=O)[C@@H](N)CCCNC(=N)NC(=O)NCCOCCOCCNC(=O)CCCCCN1/C(=C/C=C/C=C/C2=[N+](CCCCS(=O)(=O)[O-])c3ccccc3C2(C)C)C(C)(C)c2ccccc21)C(=O)N[C@@H](CC(C)C)C(=O)O.O=C(O)C(F)(F)F.O=C(O)C(F)(F)F.O=C(O)C(F)(F)F | Stable |  |
| CC[C@H](C)[C@H](NC(=O)[C@H](Cc1ccc(O)cc1)NC(=O)[C@@H]1CCCN1C(=O)[C@H](CCCNC(=N)N)NC(=O)[C@@H](N)CCCNC(=N)NC(=O)NCCCCNC(=O)CCCCCN1/C(=C/C=C/C=C/C2=[N+](CCCCS(=O)(=O)[O-])c3ccccc3C2(C)C)C(C)(C)c2cc(S(=O)(=O)O)ccc21)C(=O)N[C@@H](CC(C)C)C(=O)O.O=C(O)C(F)(F)F.O=C(O)C(F)(F)F | Stable |  |
| CC[C@H](C)[C@H](NC(=O)[C@H](Cc1ccc(O)cc1)NC(=O)[C@@H]1CCCN1C(=O)[C@H](CCCNC(=N)N)NC(=O)[C@@H](N)CCCNC(=N)NC(=O)NCCOCCOCC[n+]1c(C)cc(/C=C/C=C/c2ccc(N(C)C)cc2)cc1C)C(=O)N[C@@H](CC(C)C)C(=O)O.O=C(O)C(F)(F)F.O=C(O)C(F)(F)F.O=C(O)C(F)(F)F.O=C([O-])C(F)(F)F |  | Unstable |
